Experimental data as given in paper PMC3850062 (Virology, 2013).

Target: T1, gp16 (eGFP-gp16), phi29 DNA packaging motor ATPase (Bacillus phage phi29, UniProt P11014)
T1 sequence (P11014 1-332): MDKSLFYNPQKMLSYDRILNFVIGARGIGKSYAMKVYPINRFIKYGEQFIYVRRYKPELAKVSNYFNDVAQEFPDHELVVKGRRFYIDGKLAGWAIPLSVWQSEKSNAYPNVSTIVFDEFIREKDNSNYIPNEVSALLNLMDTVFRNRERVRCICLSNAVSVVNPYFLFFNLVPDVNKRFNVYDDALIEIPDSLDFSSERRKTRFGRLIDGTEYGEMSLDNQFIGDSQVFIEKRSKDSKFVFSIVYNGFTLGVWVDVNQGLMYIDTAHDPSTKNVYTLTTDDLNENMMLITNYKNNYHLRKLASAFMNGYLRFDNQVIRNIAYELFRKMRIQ
Details: without and with saturating dsDNA

In the case of `Nc1ncnc2c1ncn2[C@@H]1O[C@H](COP(=O)(O)OP(=O)(O)OP(=O)(O)O)[C@@H](O)[C@H]1O` [ATP], the “fluorescence ATPase assay” value is reported as “each subunit of gp16 is able to hydrolyze ATP independently”.
